In patent publication US10940141B1, “Methods for the administration of certain VMAT2 inhibitors” (Neurocrine Biosciences, Inc., priority 2019, dated 2021):

Key:
[1] = Phase 1, open-label, single-dose PK study of valbenazine in subjects with normal renal function or severe renal impairment; format: in vivo, human; details: for effect of severe renal impairment on AUC0-∞ / effect of severe renal impairment on Cmax: single dose valbenazine 40 mg (free base equivalent as ditosylate), fasted, severe renal impairment compared to normal renal function; for effect of renal status on protein binding: severe renal impairment vs normal renal function
Method: (§1) This was a Phase 1, open-label, single-dose, PK study of valbenazine to assess the safety and PK of valbenazine and its metabolites in subjects with normal renal function or severe renal impairment. A total of 16 subjects (8 with severe renal impairment and 8 with normal renal function) received a single dose of valbenazine 40 mg (free base equivalent as the ditosylate salt) under fasted conditions.

[2] = cited from earlier work
[3] = Safety and tolerability in the Phase 1 single-dose study (TEAEs, laboratory tests, vital signs, ECG); format: in vivo, human
Method: as §1

[4] = valbenazine 40 mg single dose, all 16 subjects

COc1cc2c(cc1OC)[C@H]1C[C@@H](O)[C@H](CC(C)C)CN1CC2 [NBI-98782, (2R, 3R,11bR)-3-isobutyl-9,10-dimethoxy-1,3,4,6,7,11b-hexahydro-2H-pyrido[2,1-a]isoquinolin-2-ol]
effect of severe renal impairment on AUC0-∞ [1]: no clinically meaningful effect | effect of severe renal impairment on Cmax [1]: no clinically meaningful effect | effect of renal status on protein binding ([1]; single dose valbenazine 40 mg): little effect

COc1cc2c(cc1OC)[C@H]1C[C@@H](OC(=O)[C@@H](N)C(C)(C)O)[C@H](CC(C)C)CN1CC2 [NBI-136110]
effect of severe renal impairment on AUC0-∞ [1]: no clinically meaningful effect | effect of severe renal impairment on Cmax [1]: no clinically meaningful effect

COc1cc2c(cc1OC)[C@H]1C[C@@H](OC(=O)[C@@H](N)C(C)C)[C@H](CC(C)C)CN1CC2 [Valbenazine ditosylate, L-Valine, (2R,3R,11bR)-1,3,4,6,7,11b-hexahydro-9,10-dimethoxy-3-(2-methylpropyl)-2H-benzo[a]quinolizin-2-yl ester, 4-methylbenzenesulfonate (1:2)]
solubility in water [2]: slightly soluble

COc1cc2c(cc1OC)[C@H]1C[C@@H](OC(=O)[C@@H](N)C(C)C)[C@H](CC(C)C)CN1CC2 [valbenazine, (S)-2-amino-3-methyl-butyric acid (2R, 3R,11bR)-3-isobutyl-9,10-dimethoxy-1,3,4,6,7,11b-hexahydro-2H-pyrido[2,1-a]isoquinolin-2-yl ester]
treatment-related TEAE headache ([3]; normal renal function group): 1 subject | treatment-related TEAE somnolence ([3]; normal renal function group): 1 subject | treatment-related TEAE somnolence ([3]; severe renal impairment group): 1 subject | treatment-related TEAE vision blurred ([3]; severe renal impairment group): 1 subject | subjects with QTcF increase from baseline >60 msec ([3]; valbenazine 40 mg single dose): No subject | subjects with QTcF interval >480 msec ([3]; valbenazine 40 mg single dose): No subject | subjects who experienced TEAEs, each of the renal function groups ([3]; valbenazine 40 mg single dose, 8 subjects per group (normal renal function; severe renal impairment)): 2 (25.0%) subjects | tolerability ([3]; valbenazine 40 mg single dose, 16 subjects (8 normal renal function, 8 severe renal impairment)): well tolerated | deaths, serious or severe TEAEs, or discontinuations due to a TEAE [3, 4]: no deaths, serious or severe TEAEs, or discontinuations due to a TEAE | subjects who experienced TEAEs, overall [3, 4]: 4 (25.0%) subjects | treatment-related TEAEs reported [3, 4]: 3 subjects | changes in clinical laboratory tests, vital sign measurements, weight, or ECG parameters ([3]; valbenazine 40 mg single dose, during the study): no clinically significant changes | urine clearance in subjects with severe renal impairment compared with normal renal function ([1]; single dose valbenazine 40 mg): reduction | effect of severe renal impairment on AUC0-∞ [1]: no clinically meaningful effect | effect of severe renal impairment on Cmax [1]: no clinically meaningful effect | effect of renal status on protein binding ([1]; single dose valbenazine 40 mg): little effect
